What follows are compounds tested against T1, TYK2-JH2 (Homo sapiens, UniProt P29597) (assay: TYK2-JH2 HTRF binding assay (ligand efficiency)). Conditions: calculated from binding-assay IC50 (Equation 1).
T1 construct: TYK JH2 enzyme mix (ChemPartner: CP20210818A-BV); purchased ChemPartner CP20210818A-BV
Procedure: The following example describes the TYK2-JH2 HTRF binding assay used to determine the ligand efficiency of the TYK2 inhibitors.
To calculate ligand efficiency, Equation 1 is applied: […]
in which IC50 comes from the binding assay used to determine compound potency.
TYK JH2 enzyme mix (ChemPartner: CP20210818A-BV), tracer (ChemPartner: CP-0029472-051) and mAb Anti-6HIS Tb cryptate Gold (Cisbio: Cat No. 61HI2TLA) mix were prepared in assay buffer (10 mM MgCl2, 20 mM HEPES pH 7.5, 0.01% Triton X-100, 1 mM DTT). Compounds diluted in DMSO (Final Concentrations 0.1 to 0.000005 [μM]) and enzyme mix (0.5 nM Final Concentration) were added to 384 well plates, briefly centrifuged and incubated at room temperature for 10 minutes. After incubation, tracer mix (Tracer-35 nM final concentration); (MAb Anti-6HIS Tb cryptate Gold-0.5× final)) was added, briefly centrifuged then incubate at room temperature 60 minutes. After incubation, plates were read by Envision TR-FRET (Ex340/Em495/520) protocol (PerkinElmer-Envision 2104 multilabel plate reader).

T1 sequence (P29597 589-875 limits assumed): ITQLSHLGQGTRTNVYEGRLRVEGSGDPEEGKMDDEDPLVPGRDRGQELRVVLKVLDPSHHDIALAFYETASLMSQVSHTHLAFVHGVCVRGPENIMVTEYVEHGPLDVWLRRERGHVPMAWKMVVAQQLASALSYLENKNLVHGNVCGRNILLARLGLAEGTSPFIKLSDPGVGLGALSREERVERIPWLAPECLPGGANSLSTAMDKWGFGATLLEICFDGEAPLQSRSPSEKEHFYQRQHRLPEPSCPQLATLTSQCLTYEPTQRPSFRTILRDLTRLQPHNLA

**Q.** For CC(NC1CC(F)(F)C1)c1ccc(Nc2cc(Nc3ncccc3S(C)(=O)=O)ncn2)nc1 (stereo not drawn) [Compound 35, N^4-(5-(1-(3,3-difluorocyclobutylamino)ethyl)pyridin-2-yl)-N^6-(3-(methylsulfonyl)pyridin-2-yl)pyrimidine-4,6-diamine], which “Ligand Efficiency” value is on record?
**A.** ††† (†††: >0.39)

**Q.** For CC1(CNc2ccc(Nc3cc(Nc4ncccc4S(C)(=O)=O)ncn3)nc2)COC1 [Compound 36, N^4-(5-(((3-methyloxetan-3-yl)methyl)amino)pyridin-2-yl)-N^6-(3-(methylsulfonyl)pyridin-2-yl)pyrimidine-4,6-diamine], which “Ligand Efficiency” value is on record?
**A.** ††† (†††: >0.39)

**Q.** CS(=O)(=O)c1cccnc1Nc1cc(Nc2ccc(NC3CC(F)(F)C3)cn2)ncn1 [Compound 37, N^4-(5-(3,3-difluorocyclobutylamino)pyridin-2-yl)-N^6-(3-(methylsulfonyl)pyridin-2-yl)pyrimidine-4,6-diamine] was tested. Which “Ligand Efficiency” value did it give?
**A.** ††† (†††: >0.39)

**Q.** With CS(=O)(=O)c1cccnc1Nc1cc(Nc2ccc(C(=O)NC3CC(F)(F)C3)cn2)ncn1 [Compound 38, N-(3,3-difluorocyclobutyl)-6-(6-(3-(methylsulfonyl)pyridine-2-ylamino)pyrimidin-4-ylamino)nicotinamide] as the compound, how does the “Ligand Efficiency” value read?
**A.** ††† (†††: >0.39)

**Q.** CC(C)(NC1COC1)c1ccc(Nc2cc(Nc3ccccc3S(C)(=O)=O)ncn2)nc1 [Compound 39, N^4-(2-(methylsulfonyl)phenyl)-N^6-(5-(2-(oxetan-3-ylamino)propan-2-yl)pyridin-2-yl)pyrimidine-4,6-diamine] was tested. Which “Ligand Efficiency” value did it give?
**A.** †† (††: 0.37-0.39)

**Q.** With CS(=O)(=O)c1ccccc1Nc1cc(Nc2ccc(C3(NC4COC4)CC3)cn2)ncn1 [Compound 41, N^4-(2-(methylsulfonyl)phenyl)-N^6-(5-(1-(oxetan-3-ylamino)cyclopropyl)pyridin-2-yl)pyrimidine-4,6-diamine] as the compound, how does the “Ligand Efficiency” value read?
**A.** †† (††: 0.37-0.39)

**Q.** How did the “Ligand Efficiency” value turn out when CS(=O)(=O)c1ccccc1Nc1cc(Nc2ccc(N3CCOCC3)cn2)ncn1 [Compound 42, N^4-(2-(methylsulfonyl)phenyl)-N^6-(5-morpholinopyridin-2-yl) pyrimidine-4,6-diamine] was run?
**A.** ††† (†††: >0.39)

**Q.** CS(=O)(=O)c1ccccc1Nc1cc(Nc2ccc(C(=O)NC3CCOC3)cn2)ncn1 (stereo not drawn) [Compound 43, 6-(6-(2-(methylsulfonyl)phenylamino)pyrimidin-4-ylamino)-N-(tetrahydrofuran-3-yl)nicotinamide] was tested. Which “Ligand Efficiency” value did it give?
**A.** †† (††: 0.37-0.39)

**Q.** Cc1ccnc(Nc2cc(Nc3ccccc3S(C)(=O)=O)ncn2)c1 [Compound 44, N^4-(4-methylpyridin-2-yl)-N^6-(2-(methylsulfonyl)phenyl) pyrimidine-4,6-diamine] was tested. Which “Ligand Efficiency” value did it give?
**A.** ††† (†††: >0.39)

**Q.** With Cc1ccnc(Nc2cc(Nc3ccccc3C(N)=O)ncn2)c1 [Compound 45, 2-((6-((4-methylpyridin-2-yl)amino)pyrimidin-4-yl)amino) benzamide] as the compound, how does the “Ligand Efficiency” value read?
**A.** ††† (†††: >0.39)

**Q.** With Cc1cccc(Nc2cc(Nc3ccccc3C(N)=O)ncn2)n1 [Compound 46] as the compound, how does the “Ligand Efficiency” value read?
**A.** ††† (†††: >0.39)

**Q.** With Cc1cnnc(Nc2cc(Nc3ccccc3C(N)=O)ncn2)c1 [Compound 47, 2-((6-((5-methylpyridazin-3-yl)amino)pyrimidin-4-yl)amino) benzamide] as the compound, how does the “Ligand Efficiency” value read?
**A.** ††† (†††: >0.39)

**Q.** Which “Ligand Efficiency” value does the source give for Cc1nccc(Nc2cc(Nc3ccccc3C(N)=O)ncn2)n1 [Compound 48, 2-((6-((2-methylpyrimidin-4-yl)amino)pyrimidin-4-yl)amino) benzamide] here?
**A.** ††† (†††: >0.39)

**Q.** Cc1cncc(Nc2cc(Nc3ccccc3C(N)=O)ncn2)n1 [Compound 49, 2-(6-(6-methylpyrazin-2-ylamino)pyrimidin-4-ylamino)benzamide] was tested. Which “Ligand Efficiency” value did it give?
**A.** ††† (†††: >0.39)

**Q.** How did the “Ligand Efficiency” value turn out when Cc1cccc(Nc2cc(Nc3cccnc3C(N)=O)ncn2)n1 [Compound 50, 3-((6-((6-methylpyridin-2-yl)amino)pyrimidin-4-yl)amino) picolinamide] was run?
**A.** ††† (†††: >0.39)

**Q.** How did the “Ligand Efficiency” value turn out when Cc1cccc(Nc2cc(Nc3ccncc3C(N)=O)ncn2)n1 [Compound 51, 4-((6-((6-methylpyridin-2-yl)amino)pyrimidin-4-yl)amino) nicotinamide] was run?
**A.** ††† (†††: >0.39)

**Q.** Cc1cccc(Nc2cc(Nc3ncccc3C(N)=O)ncn2)n1 [Compound 52, 2-((6-((6-methylpyridin-2-yl)amino)pyrimidin-4-yl)amino) nicotinamide] was tested. Which “Ligand Efficiency” value did it give?
**A.** ††† (†††: >0.39)

**Q.** For Cc1cccc(Nc2cc(Nc3ccccc3NS(C)(=O)=O)ncn2)n1 [Compound 53, N-(2-(6-(6-methylpyridin-2-ylamino)pyrimidin-4-ylamino)phenyl) methanesulfonamide], which “Ligand Efficiency” value is on record?
**A.** ††† (†††: >0.39)

**Q.** Which “Ligand Efficiency” value does the source give for C[C@H]1COCCN1c1ccc(Nc2cc(Nc3ccccc3S(C)(=O)=O)ncn2)nc1 [Compound 54, (S)—N^4-(5-(3-methylmorpholino)pyridin-2-yl)-N^6-(2-(methylsulfonyl)phenyl)pyrimidine-4,6-diamine] here?
**A.** † (†: < 0.37)

**Q.** With Cc1cccc(Nc2cc(Nc3ccccc3C(N)=O)nc(N)n2)n1 [Compound 55, 2-((2-amino-6-((6-methylpyridin-2-yl)amino)pyrimidin-4-yl)amino)benzamide] as the compound, how does the “Ligand Efficiency” value read?
**A.** †† (††: 0.37-0.39)

**Q.** For Cc1cccc(Nc2cc(Nc3ccccc3S(C)(=O)=O)nc(C)n2)n1 [Compound 56, 2-methyl-N^4-(6-methylpyridin-2-yl)-N^6-(2-(methylsulfonyl)phenyl) pyrimidine-4,6-diamine], which “Ligand Efficiency” value is on record?
**A.** † (†: < 0.37)

**Q.** Which “Ligand Efficiency” value does the source give for Cc1cccc(Nc2cc(Nc3ccccc3S(C)(=O)=O)nc(N)n2)n1 [Compound 57, N^4-(6-methylpyridin-2-yl)-N^6-(2-(methylsulfonyl)phenyl)pyrimidine-2,4,6-triamine] here?
**A.** ††† (†††: >0.39)

**Q.** Which “Ligand Efficiency” value does the source give for Cc1ccnc(Nc2cc(Nc3ccccc3C(N)=O)ncn2)n1 [Compound 58, 2-(6-(4-methylpyrimidin-2-ylamino)pyrimidin-4-ylamino)benzamide] here?
**A.** ††† (†††: >0.39)

**Q.** Cc1cccc(Nc2cc(Nc3cccnc3S(C)(=O)=O)ncn2)n1 [Compound 59, N^4-(6-methylpyridin-2-yl)-N^6-(2-(methylsulfonyl)pyridin-3-yl) pyrimidine-4,6-diamine] was tested. Which “Ligand Efficiency” value did it give?
**A.** ††† (†††: >0.39)

**Q.** For Cc1cccc(Nc2cc(Nc3ccncc3S(C)(=O)=O)ncn2)n1 [Compound 60, N^4-(6-methylpyridin-2-yl)-N^6-(3-(methylsulfonyl)pyridin-4-yl) pyrimidine-4,6-diamine], which “Ligand Efficiency” value is on record?
**A.** ††† (†††: >0.39)

**Q.** For Cc1cccc(Nc2cc(Nc3cnccc3C(N)=O)ncn2)n1 [Compound 61, 3-((6-((6-methylpyridin-2-yl)amino)pyrimidin-4-yl)amino) isonicotinamide], which “Ligand Efficiency” value is on record?
**A.** ††† (†††: >0.39)

**Q.** Cc1ccnc(Nc2cc(Nc3ccccc3P(C)(C)=O)ncn2)c1 [Compound 63, N^4-(2-(dimethylphosphoryl)phenyl)-N^6-(4-methylpyridin-2-yl) pyrimidine-4,6-diamine] was tested. Which “Ligand Efficiency” value did it give?
**A.** ††† (†††: >0.39)

**Q.** How did the “Ligand Efficiency” value turn out when CS(=O)(=O)c1cccnc1Nc1cc(Nc2ncccc2F)ncn1 [Compound 64, N^4-(3-fluoropyridin-2-yl)-N^6-(3-(methylsulfonyl)pyridin-2-yl) pyrimidine-4,6-diamine] was run?
**A.** ††† (†††: >0.39)

**Q.** How did the “Ligand Efficiency” value turn out when COc1ccnc(Nc2cc(Nc3cccc(C)n3)ncn2)c1S(C)(=O)=O [Compound 65, N^4-(4-methoxy-3-(methylsulfonyl)pyridin-2-yl)-N^6-(6-methylpyridin-2-yl)pyrimidine-4,6-diamine] was run?
**A.** ††† (†††: >0.39)

**Q.** With Cn1ccc(Nc2cc(Nc3ccccc3S(C)(=O)=O)ncn2)n1 [Compound 66, N^4-(1-methyl-1H-pyrazol-3-yl)-N^6-(2-(methylsulfonyl)phenyl) pyrimidine-4,6-diamine] as the compound, how does the “Ligand Efficiency” value read?
**A.** ††† (†††: >0.39)

**Q.** With Cn1ccc(Nc2cc(Nc3ccccc3C(N)=O)ncn2)n1 [Compound 67, 2-((6-((1-methyl-1H-pyrazol-3-yl)amino)pyrimidin-4-yl)amino)benzamide] as the compound, how does the “Ligand Efficiency” value read?
**A.** ††† (†††: >0.39)

**Q.** Which “Ligand Efficiency” value does the source give for Cc1cccnc1Nc1cc(Nc2ccccc2C(N)=O)ncn1 [Compound 68, 2-((6-((3-methylpyridin-2-yl)amino)pyrimidin-4-yl)amino) benzamide] here?
**A.** ††† (†††: >0.39)

**Q.** CS(=O)(=O)c1ccccc1Nc1cc(NC(=O)C2CC2)ncn1 [Compound 69, N^4-(cyclopropylcarbonyl)-N^6-(2-(methylsulfonyl)phenyl)pyrimidine-4,6-diamine] was tested. Which “Ligand Efficiency” value did it give?
**A.** ††† (†††: >0.39)

**Q.** How did the “Ligand Efficiency” value turn out when COc1ccc(Nc2cc(NC(=O)C3CC3)ncn2)c(C(N)=O)c1 [Compound 70, 2-((6-(cyclopropanecarboxamido)pyrimidin-4-yl)amino)-5-methoxy benzamide] was run?
**A.** ††† (†††: >0.39)

**Q.** How did the “Ligand Efficiency” value turn out when Cc1cccc(Nc2cc(Nc3ncccc3CS(C)(=O)=O)ncn2)n1 [Compound 71, N^4-(6-methylpyridin-2-yl)-N^6-(3-((methylsulfonyl)methyl)pyridin-2-yl)pyrimidine-4,6-diamine] was run?
**A.** ††† (†††: >0.39)

**Q.** How did the “Ligand Efficiency” value turn out when Cn1cc(-c2ccnc(Nc3cc(Nc4ccc(NC5(C)COC5)cn4)ncn3)c2S(C)(=O)=O)cn1 [Compound 72, N^4-(4-(1-methyl-1H-pyrazol-4-yl)-3-(methylsulfonyl)pyridin-2-yl)-N^6-(5-(3-methyloxetan-3-ylamino)pyridin-2-yl)pyrimidine-4,6-diamine] was run?
**A.** † (†: < 0.37)
